Paper PMC3515623, “WIKI4, a Novel Inhibitor of Tankyrase and Wnt/ß-Catenin Signaling” (PLoS ONE, 2012)

Biological target: T1, TNKS2 (Homo sapiens, UniProt Q9H2K2)
T1 construct: Recombinant GST-TNKS2
T1 sequence (Q9H2K2 1-1166): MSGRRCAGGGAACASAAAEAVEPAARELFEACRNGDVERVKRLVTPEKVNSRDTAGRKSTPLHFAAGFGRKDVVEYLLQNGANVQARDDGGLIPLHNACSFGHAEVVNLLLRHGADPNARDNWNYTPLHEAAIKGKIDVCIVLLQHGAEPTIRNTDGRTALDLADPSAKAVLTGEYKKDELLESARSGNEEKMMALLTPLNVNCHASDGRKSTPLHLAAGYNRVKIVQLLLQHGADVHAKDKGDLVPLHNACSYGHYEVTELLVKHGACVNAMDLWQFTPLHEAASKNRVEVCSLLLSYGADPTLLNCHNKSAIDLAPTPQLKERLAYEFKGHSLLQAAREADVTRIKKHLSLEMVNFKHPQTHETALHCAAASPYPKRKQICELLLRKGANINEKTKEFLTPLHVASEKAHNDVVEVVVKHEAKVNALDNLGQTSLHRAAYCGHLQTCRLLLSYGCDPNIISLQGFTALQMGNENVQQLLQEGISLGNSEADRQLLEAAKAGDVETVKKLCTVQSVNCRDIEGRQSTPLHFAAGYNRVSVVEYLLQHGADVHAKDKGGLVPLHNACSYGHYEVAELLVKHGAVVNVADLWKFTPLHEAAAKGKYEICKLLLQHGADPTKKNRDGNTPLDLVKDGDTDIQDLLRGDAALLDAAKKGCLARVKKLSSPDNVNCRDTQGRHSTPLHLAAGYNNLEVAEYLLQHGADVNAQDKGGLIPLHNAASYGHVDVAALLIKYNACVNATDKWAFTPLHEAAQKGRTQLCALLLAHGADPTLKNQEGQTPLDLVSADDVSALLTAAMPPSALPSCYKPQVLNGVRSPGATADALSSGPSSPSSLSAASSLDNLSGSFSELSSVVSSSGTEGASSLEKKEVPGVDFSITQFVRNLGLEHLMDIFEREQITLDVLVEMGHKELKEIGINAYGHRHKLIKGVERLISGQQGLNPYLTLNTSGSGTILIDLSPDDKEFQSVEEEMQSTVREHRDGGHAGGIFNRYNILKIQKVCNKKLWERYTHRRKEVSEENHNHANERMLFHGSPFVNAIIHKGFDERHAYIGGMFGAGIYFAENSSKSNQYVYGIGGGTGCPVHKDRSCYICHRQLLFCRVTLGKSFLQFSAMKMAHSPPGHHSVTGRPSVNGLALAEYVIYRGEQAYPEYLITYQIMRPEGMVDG
Assay: in vitro auto-ADP-ribosylation assay with recombinant GST-TNKS2, biotinylated substrate, chemiluminescent detection
Format: biochemical

Q: How did the IC50 turn out when COc1ccc(-n2c(SCCCN3C(=O)c4cccc5cccc(c45)C3=O)nnc2-c2ccncc2)cc1 [WIKI4] was run?
A: ~15 nM
